Measured values: paper PMC4302234, “Multifunctional peptides derived from an egg yolk protein hydrolysate: isolation and characterization” (Amino Acids, 2014)
Values joined by “and” are separate entries in the source; they are usually repeats but may differ in a detail not shown here. Equal entries are not always repeated. No end group written: not given here.

How the values were obtained:
α-glucosidase = details: peptide from ovalbumin; ref Yu et al. [2012]; read-out: α-glucosidase inhibitory activity IC50; cited from earlier work
[1] = target: α-Glucosidase from Saccharomyces cerevisiae (Saccharomyces cerevisiae, UniProt P53341); experiment: α-Glucosidase inhibitory activity (pNPG substrate); format: biochemical; details: synthetic peptides, mean n = 3; for IC50: read-out: Enzyme inhibitory activity (IC50) α-Glucosidase (converted)
Protocol: The α-glucosidase inhibition assay was performed according to the method of Yu et al. ([2011]). α-Glucosidase from Saccharomyces cerevisiae (Sigma G0660) hydrolyzes the substrate—p-nitrophenyl glucopyranoside (pNPG) (Sigma N1377) and the thus produced p-nitrophenol can be measured spectrophotometrically. 5 µL of the α-glucosidase solution (10 U/mL, in 0.1 M potassium phosphate buffer, pH 6.8) was premixed with 10 µL of the sample solution at different concentrations (in 10 % DMSO) in 620 µL of 0.1 M potassium phosphate buffer (pH 6.8). Following incubation at 37.5 °C for 20 min, 10 µL of p-nitrophenyl glucopyranoside (pNPG 10 mM) as substrate was added to the mixture to start the reaction and was then incubated at 37.5 °C for 30 min, followed by addition of 650 µL of 1 M Na2CO3 solution to terminate the reaction. The amount of released product (p-nitrophenol) was measured at λ = 410 nm. The IC50 value was defined as the concentration of inhibitor required to inhibit 50 % of α-glucosidase activity under assay conditions.

[2] = target: T1, DPP-4 from porcine kidney (Sus scrofa, UniProt P22411); experiment: Dipeptidyl peptidase-4 (DPP-4) inhibitory activity (Gly-Pro-p-nitroanilide); format: biochemical; details: synthetic peptides, mean n = 3; for IC50: read-out: Enzyme inhibitory activity (IC50) DPP-4 (converted)
T1 construct: DPP-4 from porcine kidney was purchased from Sigma (D7052); purchased Sigma D7052; host or cells: porcine kidney tissue
Protocol: DPP-4 inhibitory activity (IC50) was determined using a modified method of Lacroix and Li-Chan (2013). DPP-4 from porcine kidney was purchased from Sigma (D7052). The lyophilized peptide fractions were re-suspended in 0.1 M Tris–HCl buffer, pH 8.0. The test sample (25 μL) was preincubated with an equal volume of the substrate Gly-Pro-p-nitroanilide (1.6 mM) at 37 °C for 10 min. Afterwards, 50 μL of DPP-4 (0.01 U/mL, in 0.1 M Tris–HCl buffer, pH 8.0) was added and the mixture was incubated at 37 °C for 60 min. The reaction was stopped by the addition of 100 μL of 1 M sodium acetate buffer, pH 4.0. The released p-nitroanilide as a hydrolysis product was measured at λ = 405 nm.
The IC50 value was defined as the concentration of inhibitor required to inhibit 50 % of DPP-4 activity under assay conditions.

[3] = target: T2, ACE (EC 3.4.15.1; from rabbit lung) (Oryctolagus cuniculus, UniProt P12822); experiment: ACE inhibitory activity (HHL substrate, spectrophotometric); format: biochemical; details: synthetic peptides; mean n = 3; read-out: Enzyme inhibitory activity (IC50) ACE (converted)
T2 construct: The ACE (EC 3.4.15.1; from rabbit lung, Sigma, A6778); purchased Sigma A6778; host or cells: rabbit lung tissue
T2 sequence (P12822 34-1310): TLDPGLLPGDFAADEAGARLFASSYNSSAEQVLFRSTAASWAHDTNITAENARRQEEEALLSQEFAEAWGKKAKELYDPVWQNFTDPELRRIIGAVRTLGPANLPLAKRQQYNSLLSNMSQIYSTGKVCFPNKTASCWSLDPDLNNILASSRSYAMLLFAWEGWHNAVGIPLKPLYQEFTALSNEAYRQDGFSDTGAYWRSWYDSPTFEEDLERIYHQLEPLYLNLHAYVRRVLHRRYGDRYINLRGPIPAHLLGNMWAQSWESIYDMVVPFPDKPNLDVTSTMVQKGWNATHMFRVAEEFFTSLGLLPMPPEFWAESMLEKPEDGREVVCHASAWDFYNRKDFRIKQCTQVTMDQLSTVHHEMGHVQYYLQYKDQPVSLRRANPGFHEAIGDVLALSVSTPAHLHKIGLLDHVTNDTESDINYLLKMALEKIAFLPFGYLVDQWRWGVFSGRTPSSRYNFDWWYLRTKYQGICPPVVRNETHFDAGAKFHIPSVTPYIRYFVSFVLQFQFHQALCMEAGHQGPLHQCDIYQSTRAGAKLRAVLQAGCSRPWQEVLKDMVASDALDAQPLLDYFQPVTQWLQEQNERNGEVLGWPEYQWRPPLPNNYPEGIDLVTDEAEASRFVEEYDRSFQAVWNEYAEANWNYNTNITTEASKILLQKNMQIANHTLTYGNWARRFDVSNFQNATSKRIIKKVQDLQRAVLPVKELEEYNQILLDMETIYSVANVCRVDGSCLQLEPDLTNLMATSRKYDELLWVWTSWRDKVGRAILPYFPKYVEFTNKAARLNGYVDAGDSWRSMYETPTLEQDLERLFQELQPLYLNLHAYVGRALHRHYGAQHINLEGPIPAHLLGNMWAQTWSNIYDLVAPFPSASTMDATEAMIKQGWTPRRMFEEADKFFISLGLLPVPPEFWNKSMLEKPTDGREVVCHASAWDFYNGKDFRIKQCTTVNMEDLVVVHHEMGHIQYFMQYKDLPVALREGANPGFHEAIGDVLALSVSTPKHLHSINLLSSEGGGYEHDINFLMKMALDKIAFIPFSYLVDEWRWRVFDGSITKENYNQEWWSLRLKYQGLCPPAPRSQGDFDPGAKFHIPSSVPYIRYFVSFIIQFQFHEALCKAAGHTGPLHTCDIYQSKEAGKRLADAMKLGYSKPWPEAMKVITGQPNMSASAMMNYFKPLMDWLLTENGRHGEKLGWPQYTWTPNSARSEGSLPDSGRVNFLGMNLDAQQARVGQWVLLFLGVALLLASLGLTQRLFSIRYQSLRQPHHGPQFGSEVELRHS
Protocol: The ACE (EC 3.4.15.1; from rabbit lung, Sigma, A6778) inhibitory activity of hydrolysate and peptide fractions was measured spectrophotometrically according to Miguel et al. ([2004]). A hydrolysate solution (40 µL) mixed with a Hippuryl-His-Leu (HHL) (Sigma H4884) solution (5 mM in 100 mM potassium phosphate containing 300 mM sodium chloride, pH 8.3) as substrate was preincubated at 37 °C for 5 min, and the reaction was initiated by adding 20 µL (2 mU) of ACE solution and incubating for 30 min at the same temperature. The enzymatic reaction was halted by the addition of 150 µL of 1 M HCl. The liberated hippuric acid was extracted using 1 mL of ethyl acetate and vigorous shaking, after which 750 µL of the upper layer was transferred into a test tube and evaporated in a vacuum. The hippuric acid left in the tubes was re-dissolved in 800 µL of distilled water and the absorbance was measured at λ = 228 nm. All samples were tested in three replications. The inhibition activity was calculated using the following equation:
Inhibition activity (%) = [(A − B)/A] × 100 %
where A is the reaction blank, of which the mixture contained the same volume of the buffer solution instead of the ACE inhibitor sample; B is the reaction in the presence of both ACE and its inhibitor. The IC50 value was estimated from a dose–response curve of an inhibitor versus the ACE activity.

[4] = Antioxidant activity as ability to scavenge DPPH free radicals; details: synthetic peptides; mean n = 3
Protocol: The antioxidant activity of the obtained hydrolysates was assessed on the basis of the radical scavenging effect of the stable 1,1-diphenyl-2-picrylhydrazyl [DPPH (Sigma, D21140-0)]—free radical activity according to Yen and Chen ([1995]), with minor modifications. The tested samples were dissolved in water to a final volume of 1 mL and mixed with 1 mL of ethanol (98 %). The reaction was started by adding 0.5 mL of […] DPPH in ethanol. The mixtures were left for 30 min at room temperature and the absorbance of the resulting solutions was measured at 517 nm. For calibration, aqueous solutions of known Trolox concentrations ranging from 2 to 20 μg (able to scavenge 500 μL of 0.3 mM DPPH radical solution) were used. Radical scavenging activity of the peptides was expressed as µM troloxeq/mg protein.

[5] = FRAP method (ferric reducing antioxidant power); details: synthetic peptides; mean n = 3
Protocol: The ferric reducing antioxidant power (FRAP) method was used to determine the antioxidative capacity of hydrolysates according to Benzie and Strain ([1996]). 3 mL of FRAP working solution [300 mM acetate buffer pH 3.6; 10 mM 2,4,6,tripyridyl-s-triazine (TPTZ) (Fluka, 93285) and 20 mM FeCl3 × 6 H2O (10:1:1 v/v)] was mixed with 1 mL of the sample. After 10 min of reaction, the absorbance was measured at λ = 593 nm. An aqueous solution of known Fe(II) concentration was used for calibration (in the range from 100 to 1,000 μg). Results were expressed as μg Fe^2+/mg protein.

[6] = Fe(II) ion chelation (ferrozine); details: synthetic peptides; mean n = 3
Protocol: Chelation of iron ions by hydrolysates was estimated by the method of Xu et al. ([2007]) with modifications. A 250 μL sample was mixed with 1,250 μL H2O and 110 μL 1 mM FeCl2. After 2 min, 1 mL of 500 μM ferrozine (Sigma 160601) aqueous solution was added and the mixture was allowed to react for 10 min. The absorbance of ferrous iron–ferrozine complex was measured spectrophotometrically at λ = 562 nm. A known concentration of FeCl2 (0–20 μg) was used to generate a standard curve and the ability to chelate iron ions was expressed as μg Fe^2+/mg protein.

T1 sequence (P22411 whole entry): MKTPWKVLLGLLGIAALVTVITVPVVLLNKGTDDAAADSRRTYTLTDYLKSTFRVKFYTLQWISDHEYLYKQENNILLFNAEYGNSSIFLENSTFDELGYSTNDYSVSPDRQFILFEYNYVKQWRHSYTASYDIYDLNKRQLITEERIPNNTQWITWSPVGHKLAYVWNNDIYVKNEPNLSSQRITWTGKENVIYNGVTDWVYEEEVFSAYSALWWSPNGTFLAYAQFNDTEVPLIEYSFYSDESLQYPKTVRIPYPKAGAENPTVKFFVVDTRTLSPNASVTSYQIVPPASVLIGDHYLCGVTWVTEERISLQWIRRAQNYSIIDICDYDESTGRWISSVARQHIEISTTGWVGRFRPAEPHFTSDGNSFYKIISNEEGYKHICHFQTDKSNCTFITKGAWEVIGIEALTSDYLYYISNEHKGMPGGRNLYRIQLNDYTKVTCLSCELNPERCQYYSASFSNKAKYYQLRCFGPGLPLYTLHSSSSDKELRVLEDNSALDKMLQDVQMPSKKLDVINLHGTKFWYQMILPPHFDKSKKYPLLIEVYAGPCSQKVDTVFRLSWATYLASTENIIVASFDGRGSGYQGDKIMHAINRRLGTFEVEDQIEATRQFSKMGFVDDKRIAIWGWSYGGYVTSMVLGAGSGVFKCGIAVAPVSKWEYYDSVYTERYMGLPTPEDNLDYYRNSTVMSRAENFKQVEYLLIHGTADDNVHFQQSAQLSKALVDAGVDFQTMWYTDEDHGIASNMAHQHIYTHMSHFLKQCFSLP
α-Glucosidase from Saccharomyces cerevisiae, sequence (P53341 whole entry): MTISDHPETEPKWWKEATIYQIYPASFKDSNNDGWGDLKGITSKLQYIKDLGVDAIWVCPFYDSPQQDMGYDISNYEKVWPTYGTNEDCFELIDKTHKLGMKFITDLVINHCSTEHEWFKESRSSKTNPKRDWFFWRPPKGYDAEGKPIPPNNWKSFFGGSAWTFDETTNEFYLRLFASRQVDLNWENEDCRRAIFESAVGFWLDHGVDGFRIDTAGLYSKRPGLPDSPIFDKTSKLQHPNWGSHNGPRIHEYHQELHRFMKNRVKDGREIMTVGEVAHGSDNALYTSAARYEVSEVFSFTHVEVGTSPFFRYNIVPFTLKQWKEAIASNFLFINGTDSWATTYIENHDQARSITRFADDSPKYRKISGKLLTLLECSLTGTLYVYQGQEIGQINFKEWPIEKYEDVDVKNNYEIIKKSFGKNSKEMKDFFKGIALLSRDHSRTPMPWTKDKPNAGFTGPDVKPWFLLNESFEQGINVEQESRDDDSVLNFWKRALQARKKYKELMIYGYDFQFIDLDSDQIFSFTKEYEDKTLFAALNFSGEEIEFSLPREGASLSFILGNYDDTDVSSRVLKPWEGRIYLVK

| Substance | IC50 (α-glucosidase) | IC50 [1] | IC50 [2] | IC50 [3] | Enzyme inhibitory activity (IC50) α-Glucosidase [1] | Enzyme inhibitory activity (IC50) DPP-4 [2] | Antioxidant activity DPPH [4] | Antioxidant activity FRAP [5] | Antioxidant activity CHEL. [6] |
| --- | --- | --- | --- | --- | --- | --- | --- | --- | --- |
| KLPGF | 59.5 µM | – | – | – | – | – | – | – | – |
| VTGRFAGHPAAQ [VTGRFAGHPAAQ] | – | 302 µM | 1160 µM | 22.5 µM | – | – | – | – | – |
| YIEAVNKVSPRAGQF-OH [YIEAVNKVSPRAGQF] | – | – | – | 5.6 µM | no impact | no impact | 2.2 µM Troloxeq/mg and 2.2c µM Troloxeq/mg | 61.0 µg Fe^2+/mg and 61.0b µg Fe^2+/mg | 25.2b µg Fe^2+/mg |
| YINQMPQKSRE [YINQMPQKSRE] | – | 1220 µM | 160 µM | 7.25 µM | – | – | – | – | – |
| YINQMPQKSREA [YINQMPQKSREA] | – | 310 µM | 243 µM | 8.6 µM | – | – | – | – | – |
